Reference: ChEMBL document CHEMBL2346657, “Synthesis of novel 2-amino-4-(5'-substituted 2'-phenyl-1H-indol-3'-yl)-6-aryl-4H-pyran-3-carbonitrile derivatives as antimicrobial and antioxidant agents” (2013)
Activity calls are given as the source filed them.

Legend:
Format in all cases: functional
Aspergillus flavus [1] = assay: Antimicrobial activity against Aspergillus flavus MTCC 1973 at 500 ug/ml after 72 hrs by cup plate method; details: MTCC 1973, 72 h, read-out: IZ
[2] = test system: Radical scavenging activity; assay: Antioxidant activity assessed as DPPH radical scavenging activity at 50 ug/ml
Aspergillus niger [3] = assay: Antimicrobial activity against Aspergillus niger MTCC 281 at 750 ug/ml after 72 hrs by cup plate method; details: MTCC 281, 72 h, read-out: IZ
Staphylococcus aureus [4] = assay: Antimicrobial activity against Staphylococcus aureus ATCC 29513 at 500 ug/ml after 24 hrs by cup plate method; details: ATCC 29513, 24 h, read-out: IZ
Pseudomonas aeruginosa [5] = assay: Antimicrobial activity against Pseudomonas aeruginosa MTCC 1688 at 1000 ug/ml after 24 hrs by cup plate method; details: MTCC 1688, 24 h, read-out: IZ
Staphylococcus aureus [6] = assay: Antimicrobial activity against Staphylococcus aureus ATCC 29513 at 1000 ug/ml after 24 hrs by cup plate method; details: ATCC 29513, 24 h, read-out: IZ
Pseudomonas aeruginosa [7] = assay: Antimicrobial activity against Pseudomonas aeruginosa MTCC 1688 at 500 ug/ml after 24 hrs by cup plate method; details: MTCC 1688, 24 h, read-out: IZ
Aspergillus flavus [8] = assay: Antimicrobial activity against Aspergillus flavus MTCC 1973 at 1000 ug/ml after 72 hrs by cup plate method; details: MTCC 1973, 72 h, read-out: IZ
Aspergillus terreus [9] = assay: Antimicrobial activity against Aspergillus terreus MTCC 1782 at 500 ug/ml after 72 hrs by cup plate method; details: MTCC 1782, 72 h, read-out: IZ
Staphylococcus aureus [10] = assay: Antimicrobial activity against Staphylococcus aureus ATCC 29513 at 750 ug/ml after 24 hrs by cup plate method; details: ATCC 29513, 24 h, read-out: IZ
Aspergillus oryzae [11] = assay: Antimicrobial activity against Aspergillus oryzae MTCC 3567 at 750 ug/ml after 72 hrs by cup plate method; details: MTCC 3567, 72 h, read-out: IZ
Klebsiella pneumoniae [12] = assay: Antimicrobial activity against Klebsiella pneumoniae NCTC 13368 at 750 ug/ml after 24 hrs by cup plate method; details: NCTC 13368, 24 h, read-out: IZ
Aspergillus oryzae [13] = assay: Antimicrobial activity against Aspergillus oryzae MTCC 3567 at 500 ug/ml after 72 hrs by cup plate method; details: MTCC 3567, 72 h, read-out: IZ
Aspergillus terreus [14] = assay: Antimicrobial activity against Aspergillus terreus MTCC 1782 at 1000 ug/ml after 72 hrs by cup plate method; details: MTCC 1782, 72 h, read-out: IZ
Klebsiella pneumoniae [15] = assay: Antimicrobial activity against Klebsiella pneumoniae NCTC 13368 at 500 ug/ml after 24 hrs by cup plate method; details: NCTC 13368, 24 h, read-out: IZ
Aspergillus flavus [16] = assay: Antimicrobial activity against Aspergillus flavus MTCC 1973 at 750 ug/ml after 72 hrs by cup plate method; details: MTCC 1973, 72 h, read-out: IZ
Aspergillus oryzae [17] = assay: Antimicrobial activity against Aspergillus oryzae MTCC 3567 at 1000 ug/ml after 72 hrs by cup plate method; details: MTCC 3567, 72 h, read-out: IZ
[18] = test system: Radical scavenging activity; assay: Antioxidant activity assessed as DPPH radical scavenging activity at 75 ug/ml
Escherichia coli [19] = assay: Antimicrobial activity against Escherichia coli MTCC 723 at 1000 ug/ml after 24 hrs by cup plate method; details: MTCC 723, 24 h, read-out: IZ
Klebsiella pneumoniae [20] = assay: Antimicrobial activity against Klebsiella pneumoniae NCTC 13368 at 1000 ug/ml after 24 hrs by cup plate method; details: NCTC 13368, 24 h, read-out: IZ
Pseudomonas aeruginosa [21] = assay: Antimicrobial activity against Pseudomonas aeruginosa MTCC 1688 at 750 ug/ml after 24 hrs by cup plate method; details: MTCC 1688, 24 h, read-out: IZ
Escherichia coli [22] = assay: Antimicrobial activity against Escherichia coli MTCC 723 at 500 ug/ml after 24 hrs by cup plate method; details: MTCC 723, 24 h, read-out: IZ
Aspergillus terreus [23] = assay: Antimicrobial activity against Aspergillus terreus MTCC 1782 at 750 ug/ml after 72 hrs by cup plate method; details: MTCC 1782, 72 h, read-out: IZ
Aspergillus niger [24] = assay: Antimicrobial activity against Aspergillus niger MTCC 281 at 1000 ug/ml after 72 hrs by cup plate method; details: MTCC 281, 72 h, read-out: IZ
Escherichia coli [25] = assay: Antimicrobial activity against Escherichia coli MTCC 723 at 750 ug/ml after 24 hrs by cup plate method; details: MTCC 723, 24 h, read-out: IZ
[26] = Antioxidant activity assessed as metal chelating activity by measuring inhibition of ferrozine-Fe2+ complex formation at 25 to 100 ug/ml
Aspergillus niger [27] = assay: Antimicrobial activity against Aspergillus niger MTCC 281 at 500 ug/ml after 72 hrs by cup plate method; details: MTCC 281, 72 h, read-out: IZ
[28] = Antioxidant activity assessed as ferric ion reducing activity at 75 ug/ml by FRAP assay
[29] = Antioxidant activity assessed as metal chelating activity by measuring inhibition of ferrozine-Fe2+ complex formation at 100 ug/ml; set-up: scale not given: the % may be the effect or the level left
[30] = Antioxidant activity assessed as ferric ion reducing activity at 25 to 75 ug/ml by FRAP assay
[31] = Antioxidant activity assessed as ferric ion reducing activity at 25 to 100 ug/ml by FRAP assay

O=c1[nH]cnc2c1C(c1c(-c3ccccc3)[nH]c3ccc(Cl)cc13)C=C(c1ccc(Cl)cc1)O2 (stereo unspecified)
active: Activity [2] | Activity [18] | Activity [26]
5 mm: zone of inhibition at 750 µg/mL (Aspergillus niger [3]) | zone of inhibition at 500 µg/mL (Aspergillus terreus [9]) | zone of inhibition at 1000 µg/mL (Aspergillus terreus [14]) | zone of inhibition at 750 µg/mL (Aspergillus terreus [23]) | zone of inhibition at 1000 µg/mL (Aspergillus niger [24])
9 mm: zone of inhibition at 500 µg/mL (Staphylococcus aureus [4]) | zone of inhibition at 750 µg/mL (Staphylococcus aureus [10]) | zone of inhibition at 500 µg/mL (Escherichia coli [22]) | zone of inhibition at 750 µg/mL (Escherichia coli [25])
3 mm: zone of inhibition at 750 µg/mL (Aspergillus oryzae [11]) | zone of inhibition at 500 µg/mL (Aspergillus oryzae [13]) | zone of inhibition at 1000 µg/mL (Aspergillus oryzae [17])
8 mm: zone of inhibition at 1000 µg/mL (Pseudomonas aeruginosa [5]) | zone of inhibition at 500 µg/mL (Pseudomonas aeruginosa [7]) | zone of inhibition at 1000 µg/mL (Escherichia coli [19]) | zone of inhibition at 750 µg/mL (Pseudomonas aeruginosa [21])
4 mm: zone of inhibition at 500 µg/mL (Aspergillus flavus [1]) | zone of inhibition at 1000 µg/mL (Aspergillus flavus [8]) | zone of inhibition at 750 µg/mL (Aspergillus flavus [16])
12 mm: zone of inhibition at 1000 µg/mL (Staphylococcus aureus [6]) | zone of inhibition at 750 µg/mL (Klebsiella pneumoniae [12]) | zone of inhibition at 500 µg/mL (Klebsiella pneumoniae [15]) | zone of inhibition at 1000 µg/mL (Klebsiella pneumoniae [20])
6 mm: zone of inhibition at 500 µg/mL (Aspergillus niger [27])

N#Cc1c(N)c2c(N)c3c(nc2oc1=O)OC(c1ccc(Cl)cc1)=CC3c1c(-c2ccccc2)[nH]c2ccc(Cl)cc12 (stereo unspecified)
12 mm: zone of inhibition at 500 µg/mL (Staphylococcus aureus [4]) | zone of inhibition at 500 µg/mL (Aspergillus terreus [9]) | zone of inhibition at 750 µg/mL (Staphylococcus aureus [10]) | zone of inhibition at 750 µg/mL (Escherichia coli [25])
13 mm: zone of inhibition at 750 µg/mL (Klebsiella pneumoniae [12]) | zone of inhibition at 1000 µg/mL (Aspergillus terreus [14]) | zone of inhibition at 500 µg/mL (Klebsiella pneumoniae [15]) | zone of inhibition at 1000 µg/mL (Klebsiella pneumoniae [20]) | zone of inhibition at 750 µg/mL (Aspergillus terreus [23])
79.7%: Activity [29]
9 mm: zone of inhibition at 500 µg/mL (Pseudomonas aeruginosa [7]) | zone of inhibition at 500 µg/mL (Aspergillus oryzae [13]) | zone of inhibition at 750 µg/mL (Aspergillus flavus [16])
11 mm: zone of inhibition at 500 µg/mL (Escherichia coli [22])
14 mm: zone of inhibition at 1000 µg/mL (Escherichia coli [19])
active: Activity [28] | Activity [26]
8 mm: zone of inhibition at 750 µg/mL (Aspergillus niger [3]) | zone of inhibition at 1000 µg/mL (Aspergillus flavus [8]) | zone of inhibition at 750 µg/mL (Pseudomonas aeruginosa [21]) | zone of inhibition at 500 µg/mL (Aspergillus niger [27])
3 mm: zone of inhibition at 1000 µg/mL (Pseudomonas aeruginosa [5]) | zone of inhibition at 750 µg/mL (Aspergillus oryzae [11]) | zone of inhibition at 1000 µg/mL (Aspergillus oryzae [17])
10 mm: zone of inhibition at 500 µg/mL (Aspergillus flavus [1]) | zone of inhibition at 1000 µg/mL (Staphylococcus aureus [6]) | zone of inhibition at 1000 µg/mL (Aspergillus niger [24])

Cc1ccc(C2=CC(c3c(-c4ccccc4)[nH]c4ccc(Cl)cc34)c3c(nc[nH]c3=O)O2)cc1 (stereo unspecified)
5 mm: zone of inhibition at 500 µg/mL (Staphylococcus aureus [4])
12 mm: zone of inhibition at 500 µg/mL (Aspergillus oryzae [13])
active: Activity [30] | Activity [31] | Activity [26]
9 mm: zone of inhibition at 750 µg/mL (Klebsiella pneumoniae [12]) | zone of inhibition at 500 µg/mL (Klebsiella pneumoniae [15]) | zone of inhibition at 1000 µg/mL (Klebsiella pneumoniae [20])
3 mm: zone of inhibition at 1000 µg/mL (Staphylococcus aureus [6]) | zone of inhibition at 750 µg/mL (Staphylococcus aureus [10]) | zone of inhibition at 1000 µg/mL (Escherichia coli [19]) | zone of inhibition at 500 µg/mL (Escherichia coli [22]) | zone of inhibition at 750 µg/mL (Escherichia coli [25])
6 mm: zone of inhibition at 500 µg/mL (Aspergillus flavus [1]) | zone of inhibition at 1000 µg/mL (Aspergillus flavus [8]) | zone of inhibition at 750 µg/mL (Aspergillus flavus [16])
8 mm: zone of inhibition at 750 µg/mL (Aspergillus niger [3]) | zone of inhibition at 1000 µg/mL (Pseudomonas aeruginosa [5]) | zone of inhibition at 500 µg/mL (Pseudomonas aeruginosa [7]) | zone of inhibition at 500 µg/mL (Aspergillus terreus [9]) | zone of inhibition at 1000 µg/mL (Aspergillus terreus [14]) | zone of inhibition at 750 µg/mL (Pseudomonas aeruginosa [21]) | zone of inhibition at 750 µg/mL (Aspergillus terreus [23]) | zone of inhibition at 1000 µg/mL (Aspergillus niger [24]) | zone of inhibition at 500 µg/mL (Aspergillus niger [27])
13 mm: zone of inhibition at 750 µg/mL (Aspergillus oryzae [11]) | zone of inhibition at 1000 µg/mL (Aspergillus oryzae [17])
